Results: ChEMBL document CHEMBL1132056, “First hydroxamate inhibitors for carboxypeptidase A. N-acyl-N-hydroxy-beta-phenylalanines” (Bioorg Med Chem Lett, 1999)

Each compound was assayed against T1, Carboxypeptidase A1 (Homo sapiens, UniProt P15085) (assay: Compound was tested for its inhibitory activity against carboxypeptidase A (CPA)).
T1 sequence (P15085 whole entry): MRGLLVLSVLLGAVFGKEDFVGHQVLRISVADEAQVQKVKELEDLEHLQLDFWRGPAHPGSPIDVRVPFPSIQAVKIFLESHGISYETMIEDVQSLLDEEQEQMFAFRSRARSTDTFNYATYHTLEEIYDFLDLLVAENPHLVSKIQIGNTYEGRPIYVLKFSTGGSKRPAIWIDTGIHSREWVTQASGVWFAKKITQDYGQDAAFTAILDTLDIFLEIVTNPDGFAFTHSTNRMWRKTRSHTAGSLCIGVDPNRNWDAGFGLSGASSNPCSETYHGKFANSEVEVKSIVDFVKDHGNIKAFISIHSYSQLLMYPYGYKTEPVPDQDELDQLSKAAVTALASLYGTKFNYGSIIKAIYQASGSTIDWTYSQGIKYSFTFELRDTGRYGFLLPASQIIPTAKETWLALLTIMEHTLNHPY

In order of rising Ki:
1. O=C(O)C(Cc1ccccc1)CN(O)C(=O)Cc1ccccc1 (centres undefined)  320 nM
2. O=CN(O)C[C@@H](Cc1ccccc1)C(=O)O  560 nM
3. O=CN(O)CC(Cc1ccccc1)C(=O)O (centres undefined)  980 nM
4. O=C(O)C(Cc1ccccc1)CN(O)C(=O)CCCc1ccccc1 (centres undefined)  1160 nM
5. O=C(O)C(Cc1ccccc1)CN(O)C(=O)CCc1ccccc1 (centres undefined)  1200 nM
6. O=CN(O)C[C@H](Cc1ccccc1)C(=O)O  4950 nM
7. CCC(=O)N(O)CC(Cc1ccccc1)C(=O)O (centres undefined)  5820 nM
8. CC(=O)N(O)CC(Cc1ccccc1)C(=O)O (centres undefined)  5900 nM
9. O=C(O)C(Cc1ccccc1)CN(O)C(=O)c1ccccc1 (centres undefined)  6500 nM
